According to patent US11998013B1, “1-(morpholin-4-yl)-3-(naphthalen-2-yloxy)propan-2-ol as an eco-friendly insecticidal agent against spodoptera littoralis (boisd.)” (priority 2023, dated 2024):
Values after ≈ are worked out from the molar mass of the structure shown.

Tested on: Spodoptera littoralis
Test: Insecticidal bioassay screening (castor leaf dip, larval mortality)
Assay type: in vivo
Conditions: for Toxic ratio: 72 h, fenoxycarb's LC50 / compound's LC50 × 100
Protocol: Five concentrations (200, 100, 50, 25, 12.5 ppm) were designed for this synthetic compound and the reference fenoxycarb compound as the dynamic ingredients based on ppm via diluting the commercial formulation.
In this experiment, castor leaves are immersed in each of the previously prepared concentrations of the components for 10 seconds and then left to dry for 60 minutes. Larvae of the second and fourth instars of each checked strain are prepared with treated leaves in gauze-covered glass containers for 72 hrs. An untreated control is made in which leaves are dipped in triton x-100 and distilled water only. Then the preserved leaves were removed & fresh, untreated leaves were provided for 72 hours. Three replicates (10 larvae each) were checked for each concentration. Daily inspection was carried out for all treatments and mortality percentages were recorded 3 days (72 hours) after treatment. The average mortality percentage was corrected employing Abbott's formula. The corrected mortality rate for each of the previously synthesized compounds is statistically calculated according to Finney (1970). Through this rate, the corresponding concentration test lines (LDP lines) are assessed. Fifty and ninety percent mortality are determined, and the regression values for the checked products were previously evaluated.

Structure (SMILES)	LC50 (2nd instar larvae of S. littoralis, after 72 h of treatment, treated castor leaves) [ppm]	Toxic ratio (2nd instar larvae)	LC50 (4th instar larvae of S. littoralis, after 72 h of treatment, treated castor leaves) [ppm]	Toxic ratio (4th instar larvae)	LC50 (Spodoptera littoralis, foliar) [µg/mL]	activity against Spodoptera littoralis (in words) (compared with the reference insecticide fenoxycarb)
CCOC(=O)NCCOc1ccc(Oc2ccccc2)cc1 [Fenoxycarb, reference compound]	2.73	100	43.231	1	2.73 (≈ 9.06 µM)	
OC(COc1ccc2ccccc2c1)CN1CCOCC1 (stereo not drawn) [Compound 2, 1-(morpholin-4-yl)-3-(naphthalen-2-yloxy)propan-2-ol]		15.5		62.4	17.6 (≈ 61.1 µM)	active against Spodoptera littoralis
